In PubChem BioAssay AID330 (DTP/NCI, 2004):
Values joined by “and” are separate entries in the source; they are usually repeats but may differ in a detail not shown here. Equal values may be shown once. Inconclusive results and toxic doses are left out.

Test system: P388 leukemia ip, CD2F1 mice, survival T/C
Test: NCI In Vivo Anticancer Drug Screen. Data for tumor model P388 Leukemia (intraperitoneal) in CD2F1 (CDF1) mice
Conditions: endpoint: median survival time, higher = longer survival
Method in brief: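 Mice carrying the transplanted tumor received test compound or vehicle. Survival was recorded in each group, and the value is the treated-group measurement divided by that of the vehicle-treated control group.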

[1] = dose: 12.5 mg/kg/injection, schedule: Q01DX009 (ip), vehicle: saline with Tween-80
[2] = dose: 50.0 mg/kg/injection, schedule: Q01DX009 (ip), vehicle: saline with Tween-80
[3] = dose: 100.0 mg/kg/injection, schedule: Q01DX009 (ip), vehicle: saline with Tween-80
[4] = dose: 200.0 mg/kg/injection, schedule: Q01DX009 (ip), vehicle: saline with Tween-80
[5] = dose: 100.0 mg/kg/injection, schedule: Q04DX003 (ip), vehicle: saline with Tween-80
[6] = dose: 60.0 mg/kg/injection, schedule: Q01DX005 (ip), vehicle: Klucel (hydroxypropylcellulose) (HPC)
[7] = dose: 120.0 mg/kg/injection, schedule: Q01DX005 (ip), vehicle: Klucel (hydroxypropylcellulose) (HPC)
[8] = dose: 240.0 mg/kg/injection, schedule: Q01DX005 (ip), vehicle: Klucel (hydroxypropylcellulose) (HPC)
[9] = dose: 25.0 mg/kg/injection, schedule: Q01DX009 (ip), vehicle: saline
[10] = dose: 50.0 mg/kg/injection, schedule: Q01DX009 (ip), vehicle: saline
[11] = dose: 100.0 mg/kg/injection, schedule: Q01DX009 (ip), vehicle: saline
[12] = dose: 200.0 mg/kg/injection, schedule: Q01DX009 (ip), vehicle: saline
[13] = dose: 400.0 mg/kg/injection, schedule: Q01DX009 (ip), vehicle: saline

## Cc1noc(C)c1C1(Br)C(Br)CCCC1Br (configuration not stated)
dose: 100.0 mg/kg/injection, schedule: Q04DX002 (ip), vehicle: saline with Tween-80
  T/C: 105 % of control
dose: 200.0 mg/kg/injection, schedule: Q04DX002 (ip), vehicle: saline with Tween-80
  T/C: 104 % of control
dose: 400.0 mg/kg/injection, schedule: Q04DX002 (ip), vehicle: saline with Tween-80
  T/C: 114 % of control

## C1CN=C(N2CCCC2)C1
[1]
  T/C: 103 % of control
dose: 25.0 mg/kg/injection, schedule: Q01DX009 (ip), vehicle: saline with Tween-80
  T/C: 94 % of control
[2]
  T/C: 101 % of control and 90 % of control

## NC(N)=O.NC(N)=O.NC(N)=O.NC(N)=O.NC(N)=O.NC(N)=O.[Cr]
dose: 3.13 mg/kg/injection, schedule: Q04DX003 (ip), vehicle: saline
  T/C: 98 % of control
dose: 6.25 mg/kg/injection, schedule: Q04DX003 (ip), vehicle: saline
  T/C: 101 % of control
dose: 12.5 mg/kg/injection, schedule: Q04DX003 (ip), vehicle: saline
  T/C: 101 % of control and 102 % of control
dose: 25.0 mg/kg/injection, schedule: Q04DX003 (ip), vehicle: saline
  T/C: 103 % of control

## C=CC#N
[2]
  T/C: 99 % of control
[3]
  T/C: 95 % of control
[4]
  T/C: 90 % of control

## COC(=O)C1C(O)CN2CCCC12C (configuration not stated)
[5]
  T/C: 107 % of control
dose: 200.0 mg/kg/injection, schedule: Q04DX003 (ip), vehicle: saline with Tween-80
  T/C: 97 % of control
dose: 400.0 mg/kg/injection, schedule: Q04DX003 (ip), vehicle: saline with Tween-80
  T/C: 108 % of control

## c1ncn(Cn2cncn2)n1
[6]
  T/C: 105 % of control
[7]
  T/C: 107 % of control
[8]
  T/C: 101 % of control

## CCc1ccccc1N1CCN(C(=O)c2cc(OC)c(OC)c(OC)c2)CC1
dose: 12.5 mg/kg/injection, schedule: Q01DX009 (ip), vehicle: Klucel (hydroxypropylcellulose) (HPC)
  T/C: 95 % of control
dose: 12.5 mg/kg/injection, schedule: Q01DX009 (ip), vehicle: saline
  T/C: 100 % of control and 120 % of control
dose: 25.0 mg/kg/injection, schedule: Q01DX009 (ip), vehicle: Klucel (hydroxypropylcellulose) (HPC)
  T/C: 104 % of control
[9]
  T/C: 102 % of control and 91 % of control
dose: 44.0 mg/kg/injection, schedule: Q01DX009 (ip), vehicle: saline with Tween-80
  T/C: 120 % of control
dose: 50.0 mg/kg/injection, schedule: Q01DX009 (ip), vehicle: Klucel (hydroxypropylcellulose) (HPC)
  T/C: 113 % of control
[10]
  T/C: 102 % of control and 93 % of control
dose: 66.0 mg/kg/injection, schedule: Q01DX009 (ip), vehicle: saline with Tween-80
  T/C: 115 % of control
dose: 75.0 mg/kg/injection, schedule: Q04DX003 (ip), vehicle: saline with Tween-80
  T/C: 109 % of control
[3]
  T/C: 115 % of control
[11]
  T/C: 90 % of control and 93 % of control
[5]
  T/C: 105 % of control
dose: 150.0 mg/kg/injection, schedule: Q01DX009 (ip), vehicle: saline with Tween-80
  T/C: 150 % of control
dose: 150.0 mg/kg/injection, schedule: Q04DX003 (ip), vehicle: saline with Tween-80
  T/C: 114 % of control
dose: 200.0 mg/kg/injection, schedule: Q01DX009 (ip), vehicle: Klucel (hydroxypropylcellulose) (HPC)
  T/C: 92 % of control
[12]
  T/C: 88 % of control
dose: 225.0 mg/kg/injection, schedule: Q04DX003 (ip), vehicle: saline with Tween-80
  T/C: 121 % of control
dose: 300.0 mg/kg/injection, schedule: Q04DX003 (ip), vehicle: saline with Tween-80
  T/C: 100 % of control
[13]
  T/C: 95 % of control

## C[S+](CCSc1ccccc1)CCSc1ccccc1
dose: 7.5 mg/kg/injection, schedule: Q01DX009 (ip), vehicle: saline with Tween-80
  T/C: 90 % of control
dose: 15.0 mg/kg/injection, schedule: Q01DX009 (ip), vehicle: saline with Tween-80
  T/C: 101 % of control
dose: 30.0 mg/kg/injection, schedule: Q01DX009 (ip), vehicle: saline with Tween-80
  T/C: 99 % of control

## Cc1ccccc1NC(=O)OCC(CCl)(CCl)CCl
dose: 100.0 mg/kg/injection, schedule: Q04DX002 (ip), vehicle: Klucel (hydroxypropylcellulose) (HPC)
  T/C: 99 % of control
dose: 200.0 mg/kg/injection, schedule: Q04DX002 (ip), vehicle: Klucel (hydroxypropylcellulose) (HPC)
  T/C: 96 % of control
dose: 400.0 mg/kg/injection, schedule: Q04DX002 (ip), vehicle: Klucel (hydroxypropylcellulose) (HPC)
  T/C: 89 % of control

## COC(=O)c1ccc(N)c2c(N)ccc(C(=O)OC)c12
dose: 60.0 mg/kg/injection, schedule: Q01DX005 (ip), vehicle: saline with Tween-80
  T/C: 98 % of control
dose: 120.0 mg/kg/injection, schedule: Q01DX005 (ip), vehicle: saline with Tween-80
  T/C: 114 % of control
dose: 240.0 mg/kg/injection, schedule: Q01DX005 (ip), vehicle: saline with Tween-80
  T/C: 97 % of control

## O=C1c2ccccc2C(=O)c2c(NCCN3CCCCC3)ccc(NCCN3CCCCC3)c21
dose: 4.0 mg/kg/injection, schedule: Q01DX009 (ip), vehicle: acid diluted with saline
  T/C: 102 % of control
dose: 8.0 mg/kg/injection, schedule: Q01DX009 (ip), vehicle: acid diluted with saline
  T/C: 100 % of control
dose: 12.5 mg/kg/injection, schedule: Q01DX009 (ip), vehicle: other
  T/C: 98 % of control
dose: 16.0 mg/kg/injection, schedule: Q01DX009 (ip), vehicle: acid diluted with saline
  T/C: 103 % of control
dose: 25.0 mg/kg/injection, schedule: Q01DX009 (ip), vehicle: other
  T/C: 104 % of control
dose: 32.0 mg/kg/injection, schedule: Q01DX009 (ip), vehicle: acid diluted with saline
  T/C: 101 % of control
dose: 50.0 mg/kg/injection, schedule: Q01DX009 (ip), vehicle: other
  T/C: 104 % of control
dose: 64.0 mg/kg/injection, schedule: Q01DX009 (ip), vehicle: acid diluted with saline
  T/C: 104 % of control
dose: 100.0 mg/kg/injection, schedule: Q01DX009 (ip), vehicle: other
  T/C: 121 % of control

## ClC1=C(Cl)C2(Cl)C3C4CC(C5OC45)C3N1C2(Cl)Cl (configuration not stated)
dose: 100.0 mg/kg/injection, schedule: Q01DX001 (ip), vehicle: saline with Tween-80
  T/C: 109 % of control
dose: 200.0 mg/kg/injection, schedule: Q01DX001 (ip), vehicle: saline with Tween-80
  T/C: 103 % of control

## CC(C(=O)c1ccc(Cl)cc1)c1ccccc1 (configuration not stated)
[10]
  T/C: 96 % of control
[11]
  T/C: 105 % of control
[12]
  T/C: 99 % of control

## CN(C)P(=O)(N=S=NC(C)(C)C)N(C)C
[10]
  T/C: 109 % of control
[11]
  T/C: 115 % of control

## COC(=O)C1=C/C=C\CN(/C=C/c2ccccc2)/C=C\1C(=O)OC
dose: 100.0 mg/kg/injection, schedule: Q04DX003 (ip), vehicle: alcohol
  T/C: 97 % of control
dose: 200.0 mg/kg/injection, schedule: Q04DX003 (ip), vehicle: alcohol
  T/C: 112 % of control
dose: 400.0 mg/kg/injection, schedule: Q04DX003 (ip), vehicle: alcohol
  T/C: 94 % of control

## O=c1ccn2ccccc2n1
[10]
  T/C: 95 % of control
dose: 50.0 mg/kg/injection, schedule: Q04DX003 (ip), vehicle: saline
  T/C: 91 % of control
[11]
  T/C: 86 % of control
dose: 100.0 mg/kg/injection, schedule: Q04DX003 (ip), vehicle: saline
  T/C: 100 % of control
[12]
  T/C: 95 % of control
dose: 200.0 mg/kg/injection, schedule: Q04DX003 (ip), vehicle: saline
  T/C: 91 % of control

## Cc1ccc(S(=O)(=O)N/N=C/C(C)(c2ccccc2)c2ccccc2)cc1
[9]
  T/C: 92 % of control
[10]
  T/C: 99 % of control and 90 % of control
[11]
  T/C: 99 % of control and 94 % of control
[12]
  T/C: 97 % of control

## COc1cc(Cc2nnc(N)[nH]c2=O)cc(OC)c1OC
dose: 6.25 mg/kg/injection, schedule: Q01DX009 (ip), vehicle: saline with Tween-80
  T/C: 97 % of control
[1]
  T/C: 91 % of control
dose: 100.0 mg/kg/injection, schedule: Q01DX001 (ip), vehicle: Klucel (hydroxypropylcellulose) (HPC)
  T/C: 116 % of control
dose: 200.0 mg/kg/injection, schedule: Q01DX001 (ip), vehicle: Klucel (hydroxypropylcellulose) (HPC)
  T/C: 89 % of control
dose: 400.0 mg/kg/injection, schedule: Q01DX001 (ip), vehicle: Klucel (hydroxypropylcellulose) (HPC)
  T/C: 100 % of control

## c1ccc2c(c1)Nc1c(ccc3ccccc13)S2
[2]
  T/C: 95 % of control
[10]
  T/C: 102 % of control
[3]
  T/C: 112 % of control
[11]
  T/C: 98 % of control
[4]
  T/C: 113 % of control
[12]
  T/C: 109 % of control
dose: 400.0 mg/kg/injection, schedule: Q01DX009 (ip), vehicle: saline with Tween-80
  T/C: 113 % of control
[13]
  T/C: 100 % of control

## CCCCN1C(=O)[C@@H]2[C@H](c3ccccc3O)C(c3ccccc3O)[C@@H]2C1=O (some centres not stated)
[6]
  T/C: 100 % of control
[7]
  T/C: 92 % of control
[8]
  T/C: 100 % of control
